How the values were obtained:
[1] = biological target: Protein arginine N-methyltransferase 1 (Homo sapiens, UniProt Q99873); assay: Inhibition of N-terminal FLAG-tagged recombinant full length human PRMT1 extracted from baculovirus expression system preincubated for 10 mins followed by substrate addition and measured after 3 hrs by MTase-Glo detection reagent based luminescence analysis
[2] = biological target: T1, Histone-arginine methyltransferase CARM1 (Homo sapiens, UniProt Q86X55); assay: Inhibition of N-terminal FLAG-tagged recombinant full length human PRMT4 extracted from baculovirus expression system preincubated for 10 mins followed by substrate addition and measured after 3 hrs by MTase-Glo detection reagent based luminescence analysis
T1 sequence (Q86X55 whole entry): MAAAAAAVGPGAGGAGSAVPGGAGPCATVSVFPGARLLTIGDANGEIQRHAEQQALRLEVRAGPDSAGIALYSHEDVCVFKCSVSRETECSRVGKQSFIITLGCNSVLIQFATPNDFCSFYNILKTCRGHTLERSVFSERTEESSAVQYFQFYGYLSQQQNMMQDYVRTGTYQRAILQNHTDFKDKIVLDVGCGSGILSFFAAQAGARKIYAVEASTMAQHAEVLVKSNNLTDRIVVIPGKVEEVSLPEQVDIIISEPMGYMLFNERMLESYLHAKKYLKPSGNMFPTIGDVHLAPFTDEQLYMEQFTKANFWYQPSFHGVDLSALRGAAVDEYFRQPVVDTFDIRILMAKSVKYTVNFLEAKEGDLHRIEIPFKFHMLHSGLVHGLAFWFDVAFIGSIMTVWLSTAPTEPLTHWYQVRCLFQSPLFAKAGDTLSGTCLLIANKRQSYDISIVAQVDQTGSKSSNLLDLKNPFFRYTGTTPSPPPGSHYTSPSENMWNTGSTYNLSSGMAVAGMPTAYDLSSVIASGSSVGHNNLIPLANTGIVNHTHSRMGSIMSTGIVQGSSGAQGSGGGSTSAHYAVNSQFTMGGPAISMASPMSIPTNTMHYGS

[3] = biological target: Protein arginine N-methyltransferase 8 (Homo sapiens, UniProt Q9NR22); assay: Inhibition of N-terminal His-tagged human PRMT8 (61 to 394 residues) extracted from Escherichia coli preincubated for 10 mins followed by substrate addition and measured after 3 hrs by MTase-Glo detection reagent based luminescence analysis
Protein arginine N-methyltransferase 8, sequence (Q9NR22 whole entry, the tested form may be a part): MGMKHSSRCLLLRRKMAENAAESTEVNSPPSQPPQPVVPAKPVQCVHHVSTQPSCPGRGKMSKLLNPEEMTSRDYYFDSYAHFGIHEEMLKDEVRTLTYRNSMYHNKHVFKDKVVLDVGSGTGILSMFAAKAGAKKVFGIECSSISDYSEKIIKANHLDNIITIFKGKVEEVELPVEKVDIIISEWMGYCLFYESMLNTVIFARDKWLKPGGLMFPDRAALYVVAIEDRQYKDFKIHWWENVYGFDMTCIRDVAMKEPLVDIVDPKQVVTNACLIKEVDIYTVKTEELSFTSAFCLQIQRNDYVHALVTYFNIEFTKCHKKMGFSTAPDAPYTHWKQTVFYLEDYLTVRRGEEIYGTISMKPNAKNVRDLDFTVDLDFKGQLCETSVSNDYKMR

[4] = biological target: T2, Protein arginine N-methyltransferase 9 (Homo sapiens, UniProt Q6P2P2); assay: Inhibition of PRMT9 (unknown origin) incubated overnight by Alphascreen microplate reader
T2 sequence (Q6P2P2 whole entry): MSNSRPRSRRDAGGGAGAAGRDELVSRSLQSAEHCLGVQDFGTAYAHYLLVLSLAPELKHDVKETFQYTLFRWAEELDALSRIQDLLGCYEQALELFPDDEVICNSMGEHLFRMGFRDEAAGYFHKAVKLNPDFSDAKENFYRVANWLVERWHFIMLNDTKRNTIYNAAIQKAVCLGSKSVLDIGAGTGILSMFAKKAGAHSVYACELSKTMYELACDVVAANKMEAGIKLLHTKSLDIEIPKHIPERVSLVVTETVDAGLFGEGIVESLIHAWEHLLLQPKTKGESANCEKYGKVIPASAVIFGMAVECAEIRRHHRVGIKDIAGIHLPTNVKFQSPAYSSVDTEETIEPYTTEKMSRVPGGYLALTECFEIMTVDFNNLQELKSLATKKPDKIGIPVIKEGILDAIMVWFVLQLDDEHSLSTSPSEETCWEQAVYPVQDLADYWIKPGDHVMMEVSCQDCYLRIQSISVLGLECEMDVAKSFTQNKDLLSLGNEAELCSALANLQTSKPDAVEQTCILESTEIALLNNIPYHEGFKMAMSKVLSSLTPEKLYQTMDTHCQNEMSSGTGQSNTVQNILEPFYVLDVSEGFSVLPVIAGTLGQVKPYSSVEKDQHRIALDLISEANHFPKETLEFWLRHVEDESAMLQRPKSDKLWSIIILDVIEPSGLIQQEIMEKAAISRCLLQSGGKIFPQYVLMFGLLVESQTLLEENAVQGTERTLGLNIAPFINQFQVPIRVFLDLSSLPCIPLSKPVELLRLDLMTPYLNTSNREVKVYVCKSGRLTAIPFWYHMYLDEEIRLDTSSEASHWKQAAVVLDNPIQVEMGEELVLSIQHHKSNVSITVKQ

[5] = biological target: Protein arginine N-methyltransferase 3 (Homo sapiens, UniProt O60678); assay: Inhibition of N-terminal His-tagged recombinant human PRMT3 (2 to 531 residues) extracted from Escherichia coli preincubated for 10 mins followed by substrate addition and measured after 3 hrs by MTase-Glo detection reagent based luminescence analysis
Protein arginine N-methyltransferase 3, sequence (O60678 whole entry, the tested form may be a part): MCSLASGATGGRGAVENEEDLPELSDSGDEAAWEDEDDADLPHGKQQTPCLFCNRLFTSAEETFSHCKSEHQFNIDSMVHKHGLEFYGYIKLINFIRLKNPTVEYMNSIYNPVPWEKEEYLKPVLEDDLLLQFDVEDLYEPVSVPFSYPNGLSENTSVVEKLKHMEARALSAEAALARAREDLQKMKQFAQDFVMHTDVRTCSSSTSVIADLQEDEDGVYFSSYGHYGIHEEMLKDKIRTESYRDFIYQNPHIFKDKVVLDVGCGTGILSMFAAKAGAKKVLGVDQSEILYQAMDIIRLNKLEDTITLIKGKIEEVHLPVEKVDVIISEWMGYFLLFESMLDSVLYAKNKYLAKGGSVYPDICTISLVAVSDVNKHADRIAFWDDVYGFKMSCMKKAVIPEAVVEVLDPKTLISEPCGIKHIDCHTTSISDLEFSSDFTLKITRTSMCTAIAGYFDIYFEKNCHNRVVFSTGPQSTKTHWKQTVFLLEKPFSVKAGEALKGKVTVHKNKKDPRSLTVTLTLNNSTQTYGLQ

[6] = biological target: Protein arginine N-methyltransferase 6 (Homo sapiens, UniProt Q96LA8); assay: Inhibition of PRMT6 (unknown origin) preincubated for 10 mins followed by substrate addition and measured after 3 hrs by MTase-Glo detection reagent based luminescence analysis
Protein arginine N-methyltransferase 6, sequence (Q96LA8 whole entry): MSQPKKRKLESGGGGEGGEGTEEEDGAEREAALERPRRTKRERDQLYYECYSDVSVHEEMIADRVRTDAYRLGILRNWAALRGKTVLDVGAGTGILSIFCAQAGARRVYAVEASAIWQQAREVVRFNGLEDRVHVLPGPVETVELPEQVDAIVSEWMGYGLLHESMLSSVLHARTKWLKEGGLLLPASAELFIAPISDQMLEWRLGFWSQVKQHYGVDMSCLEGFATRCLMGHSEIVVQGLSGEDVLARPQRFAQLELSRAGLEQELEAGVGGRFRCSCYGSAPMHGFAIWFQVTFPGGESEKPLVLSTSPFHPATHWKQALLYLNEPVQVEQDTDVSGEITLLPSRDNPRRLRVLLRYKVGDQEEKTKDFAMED

VCaP = assay: Antiproliferative activity against human VCaP cells assessed as reduction in cell viability incubated for 48 hrs by CCK8 assay; type: functional, cell-based
CWR22R = assay: Antiproliferative activity against human 22Rv1 cells assessed as reduction in cell viability incubated for 48 hrs by CCK8 assay; type: functional, cell-based; conditions: 22Rv1, 48 h
[7] = biological target: T3, Protein arginine N-methyltransferase 7 (Homo sapiens, UniProt Q9NVM4); assay: Binding affinity to N-terminal GST-tagged recombinant full length human PRMT7 extracted from baculovirus infected Sf9 cells assessed as dissociation constant by SPR analysis
T3 sequence (Q9NVM4 whole entry): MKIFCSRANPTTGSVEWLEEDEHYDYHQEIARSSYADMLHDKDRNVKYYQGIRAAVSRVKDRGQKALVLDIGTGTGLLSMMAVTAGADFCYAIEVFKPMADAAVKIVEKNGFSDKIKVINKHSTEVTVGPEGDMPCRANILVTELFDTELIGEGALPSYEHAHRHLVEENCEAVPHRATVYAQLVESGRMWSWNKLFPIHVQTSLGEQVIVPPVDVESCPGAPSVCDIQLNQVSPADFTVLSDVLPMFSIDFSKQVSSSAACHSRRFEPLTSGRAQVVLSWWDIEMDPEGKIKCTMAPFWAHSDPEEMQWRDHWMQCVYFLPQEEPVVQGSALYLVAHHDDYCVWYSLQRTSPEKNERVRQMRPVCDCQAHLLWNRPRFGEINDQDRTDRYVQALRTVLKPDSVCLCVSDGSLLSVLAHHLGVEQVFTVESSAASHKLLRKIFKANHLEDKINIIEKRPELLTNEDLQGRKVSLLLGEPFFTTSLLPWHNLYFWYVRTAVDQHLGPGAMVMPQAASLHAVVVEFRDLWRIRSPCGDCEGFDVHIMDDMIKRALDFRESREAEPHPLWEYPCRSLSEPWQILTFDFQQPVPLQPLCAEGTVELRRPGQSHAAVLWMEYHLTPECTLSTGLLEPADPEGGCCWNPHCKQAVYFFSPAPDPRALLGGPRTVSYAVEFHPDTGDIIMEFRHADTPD

DU-145 [8] = assay: Antitumor activity against human DU-145 cells xenografted in male BALB/c nude mouse assessed as tumor growth inhibition at 20 mg/kg, ip relative to control; conditions: DU-145, read-out: TGI
[9] = biological target: T3, Protein arginine N-methyltransferase 7; assay: Inhibition of N-terminal FLAG-tagged recombinant human PRMT7 extracted from baculovirus infected Sf9 cells using Histone H4 (1 to 21) peptide as substrate preincubated for 15 mins followed by [3H]-SAM and substrate addition and measured after 180 mins by microplate counter analysis
DU-145 [10] = assay: Antiproliferative activity against human DU-145 cells assessed as reduction in cell viability incubated for 48 hrs by CCK8 assay; type: functional, cell-based; conditions: DU-145, 48 h
PC-3 = assay: Antiproliferative activity against human PC-3 cells assessed as reduction in cell viability incubated for 48 hrs by CCK8 assay; type: functional, cell-based; conditions: PC-3, 48 h

Protein arginine N-methyltransferase 1, sequence (Q99873 whole entry): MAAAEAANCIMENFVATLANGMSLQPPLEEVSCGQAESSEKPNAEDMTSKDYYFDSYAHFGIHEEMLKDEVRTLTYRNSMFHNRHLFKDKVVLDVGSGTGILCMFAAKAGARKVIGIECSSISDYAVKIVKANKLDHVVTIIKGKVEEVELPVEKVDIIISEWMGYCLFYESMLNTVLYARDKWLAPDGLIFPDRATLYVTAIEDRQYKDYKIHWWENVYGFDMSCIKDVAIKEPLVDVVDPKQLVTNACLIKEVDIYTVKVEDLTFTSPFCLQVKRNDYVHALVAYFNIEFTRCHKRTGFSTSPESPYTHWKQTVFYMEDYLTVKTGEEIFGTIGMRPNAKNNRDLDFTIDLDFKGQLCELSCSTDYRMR

IC50 [1] [µM]	IC50 [2] [µM]	IC50 [3] [µM]	IC50 [4] [µM]	IC50 [5] [µM]	IC50 [6] [µM]	IC50 (VCaP) [µM]	Kd [7] [µM]	IC50 [9] [µM]	IC50 (DU-145 [10]) [µM]	IC50 (PC-3) [µM]	Structure (SMILES)	IC50 (CWR22R) [µM]	inhibition in vivo at 20 mg/kg (DU-145 [8]) [%]
> 100	> 100	> 100	> 100	> 100	> 100						COc1cc(-c2nc(Nc3ccc4nc(C)cc(N)c4c3)c3sccc3n2)cc(OC)c1OC		
						1.66	7.12	9.91	1.47	1.13	COc1cc(-c2ncc(F)c(Nc3ccc4nc(C)cc(N)c4c3)n2)cc(OC)c1OC	1.32	40.3
								26			COc1cc(-c2ccc3ncc(Nc4ccc(N(C)C)cc4)nc3c2)cc(OC)c1OC		

Source: ChEMBL document CHEMBL6109154, “Development of Novel PRMT7 Inhibitors for the Treatment of Prostate Cancer” (J Med Chem, 2025)
